What was measured:
PDGFRB = PDGFRB mRNA levels by qPCR; assay type: cell-based, human; details: primary NK cells, IL-15 10 ng/ml
Description: FIGS. 2A-2I. IL-15-induced PDGFRβ expression is mediated by PI3K/AKT signaling. (A-B) Primary NK cells were treated with IL-15 (10 ng/ml) for the indicated times. mRNA levels of PDGFRB at different time points (A) (n=3) or at 1 h (B) (n=10) were examined by qPCR. (C-D) Primary NK cells were pretreated with actinomycin D (ActD, 5., g/ml) (C) or cycloheximide (CHX, 20 μg/ml) (D) for 1 h, washed twice with RPMI-1640, and then treated with IL-15 (10 ng/ml) for 24 h. DMSO was used as a control. Expression levels of PDGFRβ were examined by flow cytometry (n=5). Data shown are representative histograms and percentage of inhibition with the equation: % inhibition=100×[1−(DMSO-inhibitor)/DMSO]. […] (G-I) Binding of p65 to the PDGFRB promoter in IL-15-treated NK cells (G) or resting NK cells (H) as determined by ChIP-qPCR or PCR (I) (n=3). […]
RNA was isolated using an RNeasy Mini Kit (QIAGEN) and reversely transcribed to cDNA with a PrimeScript RT Reagent Kit with gDNA Eraser (Takara Bio) according to the manufacturer's protocol. mRNA expression levels were analyzed using SYBR Green qPCR Master Mix and a QuantStudio 12K Flex Real-Time PCR System (both from Thermo Fisher Scientific). […]

murine NK cells = experiment: PDGFRβ expression in murine splenic NK cells, flow cytometry; assay type: cell-based, mouse
Description: FIGS. 7A-7F. […] Data shown are representative histograms and mean fluorescence intensity (MFI) of PDGFRα. […] Expression levels of PDGFRβ were examined by flow cytometry (n=6). […] Data shown are the percentages of PDGFRβ^+ NK cells among total NK cells (n=5). […] Data shown are representative histograms with MFI of PDGFRβ expression. (F) Expression levels of PDGFRβ on NK cells from IL-15 transgenic (Tg) mice were determined by flow cytometry. Data shown are representative histograms. Data represent three independent experiments.
Mouse NK cells were isolated from the spleen of C57BL/6J or IL-15 transgenic mice, using the EasySep Mouse NK Cell Isolation Kit ([…] Technologies) as previously described (11).
Cells were stained with the indicated cell-surface markers and/or fixed/permeabilized using a Fixation/Permeabilization Kit (eBioscience). For intracellular staining of IFN-γ and PDGF-D, 5 μg/ml Brefeldin A (BioLegend) was added for 4 h before cell harvest. Intracellular staining of Ki67 was performed by fixing and permeabilizing with the Foxp3/Transcription Factor Staining Kit (eBioscience). […] Data were analyzed using NovoExpress software (Agilent Technologies).

IL-15: recombinant human IL-15 (200-15); recombinant murine IL-15 in the mouse NK cell test
mRNA levels of the PDGFRB gene (PDGFRB): increased significantly | PDGFRβ on NK cells from IL-15 transgenic mice (murine NK cells; long-term IL-15 stimulation, IL-15 transgenic mice): could not detect any PDGFRβ | PDGFRβ expression in murine NK cells (murine NK cells; splenic NK cells of C57BL/6 mice, mouse cytokines 10 ng/ml, 24 h): did not express PDGFRβ

Reference: US20250017964A1, “ENGINEERING OR INDUCING PDGF AND/OR PDGFR SIGNALING TO ENHANCE NK CELL THERAPY” (City of Hope, priority 2021, published 2025)
